# According to patent US20030219837A1, “Integrin ligand” (priority 2002, published 2003):
# B1: alpha6p: 70-kDa, naturally occurring truncated form of the alpha6 integrin (protein)
# chain: VNSLPEVLPILNSNEAKTVQTDVHFLKEGCGDDNVCNSNLKLEYKFGTREGNQDKFSYLPIQKGIPELVLKDQKDIALEITVTNSPSDPRNPRKDGDDAHEAKLIATFPDTLTYSAYRELRAFPEKQLSCVANQNGSQADCELGNPFKRNSSVTFYLILSTTEVTFDTTDLDINLKLETTSNQDNLAPITAKAKVVIELLLSVSGVAKPSQVYFGGTVVGEQAMKSEDEVGSLIEYEFRVINLGKPLKNLGTATLNIQWPKEISNGKWLLYLMKVESKGLEQIVCEPHNEINYLKLKESHNSRKKRELPEKQIDDSRKFSLFPERKYQTLNCSVNVRCVNIRCPLRGLDSKASLVLRSRLWNSTFLEEYSKLNYLDILLRASIDVTAAAQNIKLPHAGTQVRVTVFPSKTVAQYSGVAWWIILLAVLAGILMLALLVFLLWKCGFFKRSRYDDSIPRYHAVRIRKEEREIKDEKHMDNLEKKQWITKWNENESYS
# Columns and labels:
# alpha6p = test: Abundance of alpha6p on DU145H cells with exogenous agents; format: cell-based, human; conditions: data not shown
# [1] = test system: alpha6p integrin protein levels; test: Calcium-induced terminal differentiation assay, Western blot with AA6A; format: cell-based; conditions: 291 nontransformed mouse keratinocytes, 24 h, dose-dependent (0.04 to 1.4 mM calcium)
# Procedure: Cell Lines. All human cell lines were incubated at 37° C. in a humidified atmosphere of 95% air and 5% CO2. Cell lines DU145H, HaCaT, and PC3-N were grown in Iscove's modified Dulbecco's medium (Invitrogen Corporation, Carlsbad, Calif.; formerly Life Technologies, Inc.) plus 10% fetal bovine serum. Cell lines MCF-7, PC3-ATCC, LnCap, and H69 were grown in Dulbecco's modified Eagle's medium (Invitrogen Corporation, Carlsbad, Calif.; formerly Life Technologies, Inc.) plus 10% fetal bovine serum. SW480 cells were grown in super medium (Dulbecco's modified Eagle's medium plus 5% nonessential amino acids, 5% L-glutamine, 5% sodium pyruvate, 10% fetal bovine serum). Normal prostate cells, PrEC, were grown in PrEGM bullet kit medium (Clonetics, San Diego, Calif.). […]
# Mouse 291 normal keratinocyte terminal differentiation can be induced by calcium. […] The presence of alpha6 and alpha6p integrins in normal 291 mouse keratinocytes was determined using whole cell lysates followed by Western blot analysis using anti-alpha6 integrin antibody, AA6A (FIG. 10A). […] The alpha6 and alpha6p integrin protein bands were quantitated using Scion Image (Cress (2000) BioTechniques 29:776-781), and the results were graphed (FIG. 10B). […]
# DU145H cells = test: Surface half-life by biotinylation strategy; format: cell-based, human
# Procedure: Surface Biotinylation of Cell Lines. Previous published protocols (Isberg and Leong (1990) Cell 60:861-871; Einheber et al. (1993) J. Cell Biol. 123:1223-1236) were slightly modified. Briefly, cells were grown to confluency in 100-mm tissue culture dishes and washed three times with HEPES buffer (20 mM HEPES, 130 mM NaCl, 5 mM KCl, 0.8 mM MgCl2, 1.0 mM CaCl2, pH 7.45). The cells were then incubated with 2 ml of HEPES buffer supplemented with sulfosuccinimidyl hexanoate-conjugated biotin (500 μg/ml; Pierce), which is impermeable to cell membranes (Staros (1982) Biochemistry 21:3950-3), to label cell surface proteins for 30 min at 4° C. The cells were washed three times and lysed in cold radioimmune precipitation buffer plus protease inhibitors (phenylmethylsulfonyl fluoride, 2 mM; leupeptin and aprotinin, 1 μg/ml). The lysate was briefly sonicated on ice before centrifugation at 10,000 rpm for 10 min, and the supernatant was collected for immunoprecipitations.
# To determine if the novel alpha6p variant was a degradation product of the alpha6 integrin that would be rapidly cleared from the surface, the surface half-life of both integrins was examined using a biotinylation strategy. […] After 24, 48, or 72 h, the integrins were immunoprecipitated using the GoH3 antibody and analyzed under non-reducing conditions (FIG. 8, panel A).
Molecule,influence on abundance of alpha6p (alpha6p),further results
[Ca+2].[Cl-].[Cl-] [CaCl2],not influenced,
"[Ca+2] [Calcium, calcium]",,increase of alpha6p integrin protein levels [1]: 3 fold
aprotinin,not influenced,
CCCCCCCCCCCCCC(=O)O[C@@H]1[C@@H](C)[C@@]2(O)[C@@H](C=C(CO)C[C@]3(O)C(=O)C(C)=C[C@@H]23)[C@@H]2C(C)(C)[C@]12OC(C)=O [12-O-tetradecanoylphorbol-13-acetate],not influenced,
CNC(=O)[C@H](Cc1ccccc1)NC(=O)[C@H](CC(C)C)[C@H](CSc1cccs1)C(=O)NO [BB94],not influenced,
ecotin: exogenous protease inhibitor,not influenced,
kallikrein,not influenced,
CC(=O)N[C@@H](CC(C)C)C(=O)N[C@@H](CC(C)C)C(=O)N[C@H](C=O)CCCNC(=N)N [leupeptin],not influenced,
B1,,"surface half-life relative to full-length alpha6 integrin (DU145H cells; surface of DU145H cells): ~3 times; half-life on the cell surface (DU145H cells; surface of DU145H cells, 24, 48, 72 h after biotinylation): ~72 h"
